According to article PMC6934184, “Selective DNA-PKcs inhibition extends the therapeutic index of localized radiotherapy and chemotherapy” (The Journal of Clinical Investigation, 2019):

Molecular target: T1, MAPKAPK3 (Homo sapiens, UniProt Q16644)
T1 construct: purchased Thermo Fisher Scientific (Life Technologies) SelectScreen
Assay: SelectScreen Z'LYTE
Type: biochemical
Outline: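 Percent values come from Thermo SelectScreen profiling of NU5455, combining activity and binding assays. CSF1R was run in Z'LYTE format at Km app ATP, and CAMK1 in Adapta format with ATP listed at 10.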

T1 sequence (Q16644 whole entry): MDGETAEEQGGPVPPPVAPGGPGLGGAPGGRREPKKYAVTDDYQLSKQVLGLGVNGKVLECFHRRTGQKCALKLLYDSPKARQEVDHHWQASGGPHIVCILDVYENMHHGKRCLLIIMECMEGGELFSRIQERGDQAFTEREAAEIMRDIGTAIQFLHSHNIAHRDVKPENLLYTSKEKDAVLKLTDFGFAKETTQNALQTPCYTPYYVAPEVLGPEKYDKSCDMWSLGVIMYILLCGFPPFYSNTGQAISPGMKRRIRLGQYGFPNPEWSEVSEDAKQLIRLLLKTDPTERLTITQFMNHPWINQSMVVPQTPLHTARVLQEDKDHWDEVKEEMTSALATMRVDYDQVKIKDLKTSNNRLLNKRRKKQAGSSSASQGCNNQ

For `CN(C(=O)CN1CCOCC1)c1ccc2sc3c(-c4cccc5c(=O)cc(N6CC7CCC(C6)O7)oc45)cccc3c2c1` [NU5455], the inhibition at 1 µM was 1.4%.
